According to patent US10766869B2, “Triazoles for the treatment of demyelinating dieases” (Vertex Pharmaceuticals Incorporated, priority 2015, dated 2020):

System: primary rat mixed cortical cells
Assay: In vitro myelination assay (MBP positive myelin strands, fold myelin pixels above background)
Format: cell-based
Details: Rattus norvegicus, relative to baseline of no added compound, read-out: Fold myelin pixels above background; for fold induction at 1 µM: 1.0 μM compound; for fold induction at 10 µM: 10.0 μM compound
Outline: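 Compounds at 1.0 and 10.0 μM were incubated 14 days with dissociated P1 rat cortical cells, which were then fixed and immunostained for MBP. Myelination was scored as fold MBP myelin pixels per well over the no-compound baseline.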

| SMILES | fold induction at 1 µM | fold induction at 10 µM |
| --- | --- | --- |
| Cc1cc(Nc2ncn(-c3cc(F)cc(F)c3)n2)cc(C2(O)CCN(C3COC3)C2)c1 (stereo not shown) [Compound 416, 3-[3-[[1-(3,5-difluorophenyl)-1,2,4-triazol-3-yl]amino]-5-methyl-phenyl]-1-(oxetan-3-yl)pyrrolidin-3-ol] | 100 to 1000 | 10 to 100 |
| CCc1cc(Nc2ncn(-c3cc(F)ccc3F)n2)cc(N2CCN(C3COC3)CC2)c1 [Compound 417, 1-(2,5-difluorophenyl)-N-[3-ethyl-5-[4-(oxetan-3-yl)piperazin-1-yl]phenyl]-1,2,4-triazol-3-amine] | 100 to 1000 | 1000 to 10000 |
| Cc1cc(Nc2ncn(-c3ccnc(C)n3)n2)cc(N2CCN(C3COC3)CC2)c1 [Compound 418, N-[3-methyl-5-[4-(oxetan-3-yl)piperazin-1-yl]phenyl]-1-(2-methylpyrimidin-4-yl)-1,2,4-triazol-3-amine] | ≤ 1 | 10 to 100 |
| Cc1cc(Nc2ncn(-c3ccccc3)n2)cc(N2CC(C)N(C)CC2C)c1 (stereo not shown) [Compound 419, N-[3-methyl-5-(2,4,5-trimethylpiperazin-1-yl)phenyl]-1-phenyl-1,2,4-triazol-3-amine] | 10 to 100 | ≤ 1 |
| Cc1cc(Nc2ncn(-c3cncc(C)n3)n2)cc(N2CCN(C3CC3)CC2)c1 [Compound 420, N-[3-(4-cyclopropylpiperazin-1-yl)-5-methyl-phenyl]-1-(6-methylpyrazin-2-yl)-1,2,4-triazol-3-amine] | 1 to 10 | 1 to 10 |
| Cc1cc(Nc2ncn(-c3cc(F)cc(F)c3)n2)cc(N2CCN(CC(F)(F)F)CC2)c1 [Compound 421, 1-(3,5-difluorophenyl)-N-[3-methyl-5-[4-(2,2,2-trifluoroethyl)piperazin-1-yl]phenyl]-1,2,4-triazol-3-amine] | 100 to 1000 | 100 to 1000 |
| COC(=O)N1CCN(c2cc(C)cc(Nc3ncn(-c4cc(F)cc(F)c4)n3)c2)CC1 [Compound 422, methyl 4-[3-[[1-(3,5-difluorophenyl)-1,2,4-triazol-3-yl]amino]-5-methyl-phenyl]piperazine-1-carboxylate] | ≤ 1 | 100 to 1000 |
| Cc1cc(Nc2ncn(-c3ccccc3)n2)cc(N2C[C@@H](C)N(C)[C@@H](C)C2)c1 [Compound 423, N-[3-methyl-5-[(3R,5S)-3,4,5-trimethylpiperazin-1-yl]phenyl]-1-phenyl-1,2,4-triazol-3-amine] | 100 to 1000 | ≤ 1 |
| Cc1cc(Nc2ncn(-c3cc(C)cc(F)c3)n2)cc(N2CCN(C)CC2)c1 [Compound 424, 1-(3-fluoro-5-methyl-phenyl)-N-[3-methyl-5-(4-methylpiperazin-1-yl)phenyl]-1,2,4-triazol-3-amine] | 100 to 1000 | ≤ 1 |
| Cc1cc(N2CCN(C3COC3)CC2)cc(Nc2ncn(-c3cc(F)cc(F)c3)n2)c1C [Compound 425, 1-(3,5-difluorophenyl)-N-[2,3-dimethyl-5-[4-(oxetan-3-yl)piperazin-1-yl]phenyl]-1,2,4-triazol-3-amine] | 1 to 10 | 100 to 1000 |
| Fc1cc(F)cc(-n2cnc(Nc3cc(Cl)cc(N4CCOCC4)c3)n2)c1 [Compound 426, N-(3-chloro-5-morpholino-phenyl)-1-(3,5-difluorophenyl)-1,2,4-triazol-3-amine] | 1000 to 10000 | 1000 to 10000 |
| Cc1cc(Nc2ncn(-c3cncc(F)c3)n2)cc(N2CCOCC2)c1 [Compound 427, 1-(5-fluoro-3-pyridyl)-N-(3-methyl-5-morpholino-phenyl)-1,2,4-triazol-3-amine] | 100 to 1000 | 100 to 1000 |
| Cc1cc(Nc2ncn(-c3ccccc3Cl)n2)cc(N2CCN(C)CC2)c1 [Compound 428, 1-(2-chlorophenyl)-N-[3-methyl-5-(4-methylpiperazin-1-yl)phenyl]-1,2,4-triazol-3-amine] | 1 to 10 | 10 to 100 |
| Cc1cc(Nc2ncn(-c3cc(F)cc(F)c3)n2)cc(C2CCCNC2)c1 (stereo not shown) [Compound 429, 1-(3,5-difluorophenyl)-N-[3-methyl-5-(3-piperidyl)phenyl]-1,2,4-triazol-3-amine] | 1000 to 10000 | ≤ 1 |
| Cc1cc(Nc2ncn(-c3ccccc3)n2)cc(N2CCC(F)CC2)n1 [Compound 430, 2-(4-fluoro-1-piperidyl)-6-methyl-N-(1-phenyl-1,2,4-triazol-3-yl)pyridin-4-amine] | 100 to 1000 | ≤ 1 |
| Cc1cc(Nc2ncn(-c3ccccc3)n2)cc(N2CCN(CC3(C)COC3)CC2)c1 [Compound 431, N-[3-methyl-5-[4-[(3-methyloxetan-3-yl)methyl]piperazin-1-yl]phenyl]-1-phenyl-1,2,4-triazol-3-amine] | 1 to 10 | ≤ 1 |

| SMILES | fold induction at 1 µM | fold induction at 10 µM |
| --- | --- | --- |
| CCc1cc(Nc2ncn(-c3cccc(OC)c3)n2)cc(N2CCN(C3COC3)CC2)c1 [Compound 432, N-[3-ethyl-5-[4-(oxetan-3-yl)piperazin-1-yl]phenyl]-1-(3-methoxyphenyl)-1,2,4-triazol-3-amine] | 100 to 1000 | 1 to 10 |
| Cc1cc(Nc2ncn(-c3cc(F)cc(F)c3)n2)cc(OC2CCN(C3COC3)CC2)c1 [Compound 433, 1-(3,5-difluorophenyl)-N-[3-methyl-5-[[1-(oxetan-3-yl)-4-piperidyl]oxy]phenyl]-1,2,4-triazol-3-amine] | 100 to 1000 | 100 to 1000 |
| Cc1cc(Nc2ncn(-c3ccccc3)n2)cc(N2CCN(C3CCOC3)CC2)c1 (stereo not shown) [Compound 434, N-[3-methyl-5-(4-tetrahydrofuran-3-ylpiperazin-1-yl)phenyl]-1-phenyl-1,2,4-triazol-3-amine] | 1000 to 10000 | 1000 to 10000 |
| Fc1cc(Nc2ncn(-c3cccc(F)c3)n2)cc(N2CCCC2)c1 [Compound 435, 1-(3-fluorophenyl)-N-(3-fluoro-5-pyrrolidin-1-yl-phenyl)-1,2,4-triazol-3-amine] | 100 to 1000 | 100 to 1000 |
| Cc1cc(Nc2ncn(-c3ccccc3)n2)cc(N2CCN(C3(C)COC3)CC2)c1 [Compound 436, N-[3-methyl-5-[4-(3-methyloxetan-3-yl)piperazin-1-yl]phenyl]-1-phenyl-1,2,4-triazol-3-amine] | 1000 to 10000 | 100 to 1000 |
| Cc1cc(Nc2ncn(-c3cc(F)ccc3F)n2)cc(N2CCN(C3COC3)CC2)c1 [Compound 437, 1-(2,5-difluorophenyl)-N-[3-methyl-5-[4-(oxetan-3-yl)piperazin-1-yl]phenyl]-1,2,4-triazol-3-amine] | 10 to 100 | 10 to 100 |
| Cc1cc(Nc2ncn(-c3cc(F)cc(F)c3)n2)cc(C2CCNCC2O)c1 (stereo not shown) [Compound 438, 4-[3-[[1-(3,5-difluorophenyl)-1,2,4-triazol-3-yl]amino]-5-methyl-phenyl]piperidin-3-ol] | 10 to 100 | ≤ 1 |
| CSc1cccc(-n2cnc(Nc3cc(C)cc(N4CCN(C5COC5)CC4)c3)n2)c1 [Compound 439, N-[3-methyl-5-[4-(oxetan-3-yl)piperazin-1-yl]phenyl]-1-(3-methylsulfanylphenyl)-1,2,4-triazol-3-amine] | 1 to 10 | 1 to 10 |
| Fc1cc(Nc2ncn(-c3ccc(F)c(F)c3)n2)cc(N2CCOCC2)c1 [Compound 440, 1-(3,4-difluorophenyl)-N-(3-fluoro-5-morpholino-phenyl)-1,2,4-triazol-3-amine] | 10 to 100 | 10 to 100 |
| Fc1cc(Nc2ncn(-c3ccc(C(F)(F)F)cc3)n2)cc(N2CCCC2)c1 [Compound 441, N-(3-fluoro-5-pyrrolidin-1-yl-phenyl)-1-[4-(trifluoromethyl)phenyl]-1,2,4-triazol-3-amine] | 1 to 10 | ≤ 1 |
| Cc1cc(Nc2ncn(-c3cc(F)cc(F)c3)n2)cc(C2CCCN(C3CC(C(=O)O)C3)C2)c1 (stereo not shown) [Compound 442, 3-[3-[3-[[1-(3,5-difluorophenyl)-1,2,4-triazol-3-yl]amino]-5-methyl-phenyl]-1-piperidyl]cyclobutanecarboxylic acid] | 10 to 100 | 10 to 100 |
| CC(=O)N1CCC(c2cc(C)cc(Nc3ncn(-c4ccccc4)n3)c2)C1 (stereo not shown) [Compound 443, 1-[3-[3-methyl-5-[(1-phenyl-1,2,4-triazol-3-yl)amino]phenyl]pyrrolidin-1-yl]ethanone] | 1000 to 10000 | ≤ 1 |
| Cc1cc(Nc2ncn(-c3cc(F)cc(F)c3)n2)cc(N2CCC3(COC3)C2)c1 [Compound 444, 1-(3,5-difluorophenyl)-N-[3-methyl-5-(2-oxa-7-azaspiro[3.4]octan-7-yl)phenyl]-1,2,4-triazol-3-amine] | ≤ 1 | 1 to 10 |
| Cc1cc(Nc2ncn(-c3cccc(F)c3F)n2)cc(N2CCN(C3COC3)CC2)c1 [Compound 445, 1-(2,3-difluorophenyl)-N-[3-methyl-5-[4-(oxetan-3-yl)piperazin-1-yl]phenyl]-1,2,4-triazol-3-amine] | 10 to 100 | 10 to 100 |
| Cc1cc(Nc2ncn(-c3ccccc3Cl)n2)cc(N2CCN(C3COC3)CC2)c1 [Compound 446, 1-(2-chlorophenyl)-N-[3-methyl-5-[4-(oxetan-3-yl)piperazin-1-yl]phenyl]-1,2,4-triazol-3-amine] | 1 to 10 | 1000 to 10000 |
| Cc1cc(Nc2ncn(-c3cncc(F)c3)n2)cc(C2COC2)c1 [Compound 447, 1-(5-fluoro-3-pyridyl)-N-[3-methyl-5-(oxetan-3-yl)phenyl]-1,2,4-triazol-3-amine] | 10 to 100 | 10 to 100 |
